Laboratory results reported in ChEMBL document CHEMBL1201862, “PubChem BioAssay data set” (2004).
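Exposure lasted 48 hours, with cells grown in 96-well plates and compounds tested at five concentrations. Abbreviation: GI50, concentration required for 50% inhibition of growth.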 Activity calls are given as the source filed them. Rule as the data show it: active = GI50 up to about 1.1 µM and inactive = higher.

Tests used:
Assay in all cases: NCI tumour cell line growth inhibition, 48 h
CCRF-CEM = test system: CCRF-CEM
HCT-116 = test system: HCT-116
HCT-15 = test system: HCT-15
HL-60 = test system: HL-60
Hs-578T = test system: Hs-578T
LOX IMVI = test system: LOX IMVI
M14 = test system: M14
MDA-MB-231 = test system: MDA-MB-231
MDA-MB-435 = test system: MDA-MB-435
MOLT-4 = test system: MOLT-4
NCI-H460 = test system: NCI-H460
SF-295 = test system: SF-295
SNB-19 = test system: SNB-19
UACC-62 = test system: UACC-62
BT-549 = test system: BT-549
MCF7 = test system: MCF7

Row | Compound | GI50 (CCRF-CEM) | GI50 (HCT-116) | GI50 (HCT-15) [µM] | GI50 (HL-60) | GI50 (Hs-578T) | GI50 (LOX IMVI) | GI50 (M14) | GI50 (MDA-MB-231) | GI50 (MDA-MB-435) | GI50 (MOLT-4) | GI50 (NCI-H460) | GI50 (SF-295) | GI50 (SNB-19) | GI50 (UACC-62) | GI50 (BT-549) | GI50 (MCF7)
1 | COc1ccc(-n2c(N)c(C#N)[nH]c2=O)cc1 | > 10 µM (inactive) | > 10 µM (inactive) | > 10 | > 10 µM (inactive) | > 10 µM (inactive) | 1.79 µM (inactive) | > 10 µM (inactive) | > 10 µM (inactive) | > 10 µM (inactive) | > 10 µM (inactive) | > 10 µM (inactive) | 2.77 µM (inactive) | > 10 µM (inactive) | > 10 µM (inactive) | – | –
2 | FC(F)(F)c1nc2cc(SSc3cc4nc(C(F)(F)F)[nH]c4cc3Cl)c(Cl)cc2[nH]1 | – | > 100 µM (inactive) | > 100 | > 100 µM (inactive) | > 100 µM (inactive) | > 100 µM (inactive) | > 100 µM (inactive) | > 100 µM (inactive) | > 100 µM (inactive) | > 100 µM (inactive) | > 100 µM (inactive) | > 100 µM (inactive) | > 100 µM (inactive) | > 100 µM (inactive) | > 100 µM (inactive) | 65.5 µM (inactive)
3 | Cc1ccc(Nc2n[nH]c(=S)s2)cc1 | > 100 µM (inactive) | > 100 µM (inactive) | > 100 | > 100 µM (inactive) | > 100 µM (inactive) | > 100 µM (inactive) | > 100 µM (inactive) | > 100 µM (inactive) | 42.4 µM (inactive) | > 100 µM (inactive) | > 100 µM (inactive) | > 100 µM (inactive) | > 100 µM (inactive) | > 100 µM (inactive) | – | > 100 µM (inactive)
4 | CCCSc1ccc2[nH]c(N3C(=O)/C(=C/c4ccco4)N=C3c3ccccc3)cc2c1 | 19.3 µM (inactive) | 21.8 µM (inactive) | 19.8 | 11.9 µM (inactive) | – | 27.8 µM (inactive) | 21.6 µM (inactive) | – | 8.71 µM (inactive) | 17.1 µM (inactive) | 18.3 µM (inactive) | – | > 50 µM (inactive) | 23.3 µM (inactive) | 32.7 µM (inactive) | 15.8 µM (inactive)
5 | O=C(O)C1CCCN1Cc1ccc2c(c1)OCO2 (stereo unspecified) | – | > 100 µM (inactive) | > 100 | – | > 100 µM (inactive) | > 100 µM (inactive) | > 100 µM (inactive) | > 100 µM (inactive) | > 100 µM (inactive) | > 100 µM (inactive) | > 100 µM (inactive) | > 100 µM (inactive) | > 100 µM (inactive) | > 100 µM (inactive) | > 100 µM (inactive) | > 100 µM (inactive)
6 | CCC1CCN=C(Cn2cc(C)c(=O)[nH]c2=O)N1 (stereo unspecified) | 0.201 µM (active) | > 100 µM (inactive) | > 100 | – | > 100 µM (inactive) | > 100 µM (inactive) | > 100 µM (inactive) | > 100 µM (inactive) | – | – | > 100 µM (inactive) | > 100 µM (inactive) | > 100 µM (inactive) | > 100 µM (inactive) | > 100 µM (inactive) | > 100 µM (inactive)
7 | CNC(=S)N/N=C(\C)c1cc(OC)c(OC)cc1O | > 100 µM (inactive) | > 100 µM (inactive) | > 100 | 0.0556 µM (active) | – | – | > 100 µM (inactive) | > 100 µM (inactive) | > 100 µM (inactive) | > 100 µM (inactive) | > 100 µM (inactive) | – | > 100 µM (inactive) | > 100 µM (inactive) | > 100 µM (inactive) | > 100 µM (inactive)
8 | CCN(CC)C(=O)N1CN(c2ccccc2)C2(CCN(CCCC3(c4ccc(F)cc4)OCCO3)CC2)C1=O | 13.9 µM (inactive) | 11.7 µM (inactive) | 15.2 | 12.7 µM (inactive) | 16.3 µM (inactive) | 12.7 µM (inactive) | 40.2 µM (inactive) | – | 18.6 µM (inactive) | 10.4 µM (inactive) | – | 25.4 µM (inactive) | 30.3 µM (inactive) | 17.4 µM (inactive) | 12.5 µM (inactive) | 4.75 µM (inactive)
9 | COc1ccc(/C=C2\NC(=S)N(CN3CCCCC3)C2=O)cc1 | 39.5 µM (inactive) | 34.6 µM (inactive) | 24.6 | – | 17.8 µM (inactive) | 30.5 µM (inactive) | 50.7 µM (inactive) | > 100 µM (inactive) | 52.7 µM (inactive) | 28.6 µM (inactive) | – | 69.7 µM (inactive) | 37 µM (inactive) | 44.7 µM (inactive) | – | 21.8 µM (inactive)
10 | CCNc1cc2c(cc1O)CC[C@@H]1[C@@H]2CC[C@]2(C)[C@@H](O)CC[C@@H]12 | 1.41 µM (inactive) | – | 0.942 | 1.52 µM (inactive) | 3.62 µM (inactive) | 2.98 µM (inactive) | 1.78 µM (inactive) | 10.5 µM (inactive) | – | 3.13 µM (inactive) | 0.489 µM (active) | 0.912 µM (active) | 0.82 µM (active) | – | 15.6 µM (inactive) | 8.43 µM (inactive)
11 | N#C/N=C1/c2ccccc2/C(=N/C#N)c2cc(CO)ccc21 | – | 29.2 µM (inactive) | 27.2 | 21.6 µM (inactive) | 69.2 µM (inactive) | 30.5 µM (inactive) | 48.2 µM (inactive) | 71.4 µM (inactive) | 27.4 µM (inactive) | 16.4 µM (inactive) | 12.5 µM (inactive) | 32.6 µM (inactive) | 51.8 µM (inactive) | – | 18 µM (inactive) | 30.6 µM (inactive)
12 | COc1ccc(CC(COS(=O)(=O)c2ccc(C)cc2)NS(=O)(=O)c2ccc(C)cc2)cc1 (stereo unspecified) | – | 12.8 µM (inactive) | 14.2 | – | 15.6 µM (inactive) | 19.5 µM (inactive) | 8.34 µM (inactive) | > 53.5 µM (inactive) | 13.9 µM (inactive) | > 100 µM (inactive) | 11.5 µM (inactive) | 13.7 µM (inactive) | 12.6 µM (inactive) | 6.98 µM (inactive) | 5.71 µM (inactive) | 8.24 µM (inactive)
13 | O=c1[nH]c(=O)n(C2OC(CO)C(O)C2O)cc1OCCc1ccccc1 (stereo unspecified) | > 100 µM (inactive) | > 100 µM (inactive) | > 100 | > 100 µM (inactive) | > 100 µM (inactive) | > 100 µM (inactive) | > 100 µM (inactive) | > 100 µM (inactive) | > 100 µM (inactive) | > 100 µM (inactive) | > 100 µM (inactive) | > 100 µM (inactive) | > 100 µM (inactive) | > 100 µM (inactive) | – | > 100 µM (inactive)
14 | CC1CC(C)CN(S(=O)(=O)c2cc(Cl)c(Oc3ccc([N+](=O)[O-])cc3Cl)c(Cl)c2)C1 (stereo unspecified) | – | > 100 µM (inactive) | > 100 | > 100 µM (inactive) | > 100 µM (inactive) | > 100 µM (inactive) | > 100 µM (inactive) | > 100 µM (inactive) | > 100 µM (inactive) | > 100 µM (inactive) | > 100 µM (inactive) | > 100 µM (inactive) | > 100 µM (inactive) | > 100 µM (inactive) | > 100 µM (inactive) | > 100 µM (inactive)
15 | CSc1c(C(N)=S)c(N)nn1-c1ccccc1 | – | > 100 µM (inactive) | > 100 | > 100 µM (inactive) | > 100 µM (inactive) | > 100 µM (inactive) | > 100 µM (inactive) | > 100 µM (inactive) | > 100 µM (inactive) | > 100 µM (inactive) | > 100 µM (inactive) | – | > 100 µM (inactive) | > 100 µM (inactive) | > 100 µM (inactive) | > 100 µM (inactive)
16 | COc1ccc2c(c1)C(=O)CCc1cc(OC)c(OC)c(OC)c1-2 | 0.0512 µM (active) | 0.0506 µM (active) | 0.0359 | – | 0.0243 µM (active) | 0.0966 µM (active) | 0.0347 µM (active) | 0.166 µM (active) | 0.0204 µM (active) | 0.0564 µM (active) | 0.0413 µM (active) | 0.0384 µM (active) | 0.051 µM (active) | 0.075 µM (active) | – | < 0.01 µM (active)
17 | COc1cc(OC)nc(NC(=O)NS(=O)(=O)c2cccc3ncn(C)c(=O)c23)n1 | > 100 µM (inactive) | > 100 µM (inactive) | > 100 | > 100 µM (inactive) | 67.1 µM (inactive) | > 100 µM (inactive) | > 100 µM (inactive) | > 100 µM (inactive) | > 100 µM (inactive) | > 100 µM (inactive) | – | > 100 µM (inactive) | > 100 µM (inactive) | > 100 µM (inactive) | – | > 100 µM (inactive)
18 | O=S(=O)(O)c1cc(/N=N/c2c(O)ccc3ccccc23)ccc1/C=C/c1ccc(/N=N/c2c(O)ccc3ccccc23)cc1S(=O)(=O)O | – | > 100 µM (inactive) | > 100 | – | > 100 µM (inactive) | – | 99.5 µM (inactive) | 40.3 µM (inactive) | > 100 µM (inactive) | – | – | > 100 µM (inactive) | > 100 µM (inactive) | > 100 µM (inactive) | > 100 µM (inactive) | –
19 | CCCCCCCC(=O)NS(=O)(=O)c1ccccc1 | > 100 µM (inactive) | > 100 µM (inactive) | > 100 | > 100 µM (inactive) | > 100 µM (inactive) | > 100 µM (inactive) | 77.1 µM (inactive) | > 100 µM (inactive) | > 100 µM (inactive) | > 100 µM (inactive) | > 100 µM (inactive) | > 100 µM (inactive) | > 100 µM (inactive) | > 100 µM (inactive) | > 100 µM (inactive) | –
20 | CC(=O)Nc1ccc2cc(C)c(O)nc2n1 | > 100 µM (inactive) | > 100 µM (inactive) | > 100 | > 100 µM (inactive) | 85.7 µM (inactive) | – | > 100 µM (inactive) | 75.7 µM (inactive) | > 100 µM (inactive) | > 100 µM (inactive) | > 100 µM (inactive) | > 100 µM (inactive) | > 100 µM (inactive) | > 100 µM (inactive) | > 100 µM (inactive) | –
